This note sets out measurements from US20130109682A1, “CYCLIC ETHER COMPOUNDS USEFUL AS KINASE INHIBITORS” (NOVARTIS AG, priority 2010, published 2013).

Molecules are shown by their SMILES.

This assay deals with KDR kinase (Homo sapiens, UniProt P35968). Description: KDR kinase inhibition assay (LanthaScreen TR-FRET). Format: biochemical. The following applies: TR-FRET assay. Here is the method:
KDR Kinase Inhibition Assay
LanthaScreen™ is the detection of Time-Resolved Fluorescence Resonance Energy Transfer (TR-FRET) using lanthanide chelates to measure interactions between various binding partners. The application of TR-FRET to assay kinase activity was first described by Mathis (1995). A TR-FRET assay was used to measure KDR kinase inhibitory activity. The assay panel was run on a Biomek FX liquid handling workstations. To the assay plates containing 50 nL compound or control solutions, 4.5 μL of buffer A (50 mM TRIS-HCl pH 7.4, 2 mM DTT, 0.02% Tween 20, 0.02 mM Na3VO4, H2O nanpure) including a generic concentration of ATP (2 μM f.c.) was added per well, followed by 4.5 μL of buffer B (4 uM ATP in Buffer A) including a generic concentration of polyEAY (50 nM f.c.), KDR kinase, and divalent cations. Final concentration of kinase and cations were: [KDR kinase]=0.38 nM, [Mg]=10 mM, [Ca]=1 mM. After 1 hour of incubation the kinase reactions were stopped by the addition of 4.5 μL of stop solution D (50 mM EDTA, 20 mM TRIS-HCl pH 7.4, 0.04% NP-40) immediately followed by 4.5 μL of buffer A (50 mM TRIS-HCl pH 7.4, 2 mM DTT, 0.02% Tween 20, 0.02 mM Na3VO4, H2O nanpure) including the Tb-labeled P-20 antibody to give a total detection volume of 18 μL. After an incubation time of 45 min in the dark, the plates were transferred into the Pherastar fluorescence reader for counting. The effect of compound on the enzymatic activity was obtained from the linear progress curves and determined from one reading (end point measurement).

Chain of KDR kinase (P35968 20-1356): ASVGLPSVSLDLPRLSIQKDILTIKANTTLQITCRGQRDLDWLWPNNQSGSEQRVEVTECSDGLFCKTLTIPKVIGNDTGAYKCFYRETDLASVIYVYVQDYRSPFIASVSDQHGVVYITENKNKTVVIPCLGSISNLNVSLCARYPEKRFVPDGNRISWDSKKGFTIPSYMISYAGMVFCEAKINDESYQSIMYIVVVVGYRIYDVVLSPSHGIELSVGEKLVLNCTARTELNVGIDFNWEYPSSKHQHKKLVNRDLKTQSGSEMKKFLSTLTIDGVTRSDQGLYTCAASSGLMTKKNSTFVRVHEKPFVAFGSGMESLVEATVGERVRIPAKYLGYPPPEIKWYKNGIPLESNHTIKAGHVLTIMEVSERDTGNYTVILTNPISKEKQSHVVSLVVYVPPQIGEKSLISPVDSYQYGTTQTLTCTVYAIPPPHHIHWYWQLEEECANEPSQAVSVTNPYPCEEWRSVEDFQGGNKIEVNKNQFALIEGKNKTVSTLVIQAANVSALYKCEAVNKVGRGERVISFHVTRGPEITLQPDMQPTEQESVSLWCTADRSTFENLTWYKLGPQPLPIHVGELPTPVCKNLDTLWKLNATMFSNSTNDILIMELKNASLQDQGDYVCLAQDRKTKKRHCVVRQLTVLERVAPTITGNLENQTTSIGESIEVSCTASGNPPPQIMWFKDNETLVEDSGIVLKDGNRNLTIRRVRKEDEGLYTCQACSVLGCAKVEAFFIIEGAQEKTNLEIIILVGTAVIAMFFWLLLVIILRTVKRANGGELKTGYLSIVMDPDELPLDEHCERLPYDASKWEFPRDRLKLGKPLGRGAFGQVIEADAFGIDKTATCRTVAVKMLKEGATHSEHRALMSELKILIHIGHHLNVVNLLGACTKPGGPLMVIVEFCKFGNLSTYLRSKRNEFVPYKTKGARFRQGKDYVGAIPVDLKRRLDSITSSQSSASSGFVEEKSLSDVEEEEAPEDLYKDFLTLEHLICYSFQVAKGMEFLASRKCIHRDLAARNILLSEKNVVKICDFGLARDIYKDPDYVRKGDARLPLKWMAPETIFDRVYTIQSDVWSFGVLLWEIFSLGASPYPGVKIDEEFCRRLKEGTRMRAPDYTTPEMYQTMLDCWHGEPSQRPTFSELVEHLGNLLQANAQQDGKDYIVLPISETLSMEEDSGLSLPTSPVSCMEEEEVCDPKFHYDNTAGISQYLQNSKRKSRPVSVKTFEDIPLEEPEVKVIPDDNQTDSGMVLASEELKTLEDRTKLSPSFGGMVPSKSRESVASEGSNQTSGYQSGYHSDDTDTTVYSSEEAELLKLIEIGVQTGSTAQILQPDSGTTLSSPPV

As usually defined, the IC50 is the concentration needed to halve the response being measured. Lower therefore signals higher potency. `Nc1ncc(-c2ccccc2)nc1C(=O)Nc1cnccc1[C@H]1C[C@@H](N)[C@@]2(O)CCC[C@H]2O1` [Example 183, 3-amino-N-(4-((2R,4R,4aS,7aR)-4-amino-4a-hydroxyoctahydrocyclopenta[b]pyran-2-yl)pyridin-3-yl)-6-phenylpyrazine-2-carboxamide] came in with an IC50 of 6.8 nM.

For `Nc1ncc(-c2ccccc2)nc1C(=O)Nc1cnccc1[C@@H]1C[C@H](N)[C@]2(O)CCC[C@@H]2O1` [Example 185, 3-amino-N-(4-((2S,4S,4aR,7aS)-4-amino-4a-hydroxyoctahydrocyclopenta[b]pyran-2-yl)pyridin-3-yl)-6-phenylpyrazine-2-carboxamide], the IC50 is 2000 nM.

Turning to `CC[C@]1(O)[C@H](N)C[C@H](c2ccncc2NC(=O)c2nc(-c3ccccc3)cnc2N)O[C@@H]1C` [Example 187, 3-amino-N-(4-((2R,4R,5S,6R)-4-amino-5-ethyl-5-hydroxy-6-methyltetrahydro-2H-pyran-2-yl)pyridin-3-yl)-6-phenylpyrazine-2-carboxamide], half-maximal inhibition (IC50) was put at 42 nM.

For the compound `CC[C@]1(O)[C@H](C)O[C@H](c2ccncc2NC(=O)c2nc(-c3ccccc3)cnc2N)C[C@@H]1N` [Example 189, 3-amino-N-(4-((2S,4S,5R,6S)-4-amino-5-ethyl-5-hydroxy-6-methyltetrahydro-2H-pyran-2-yl)pyridin-3-yl)-6-phenylpyrazine-2-carboxamide], the IC50 was 1400 nM.

With `Nc1ncc(-c2ccccc2)nc1C(=O)Nc1cnccc1[C@H]1C[C@@H](N)[C@@]2(O)CCCC[C@H]2O1` [Example 197, 3-amino-N-(4-((2R,4R,4aS,8aR)-4-amino-4a-hydroxyoctahydro-2H-chromen-2-yl)pyridin-3-yl)-6-phenylpyrazine-2-carboxamide], it took 40 nM to reach half-maximal inhibition (IC50).

`Nc1ncc(-c2ccccc2)nc1C(=O)Nc1cnccc1[C@H]1C[C@@H](N)[C@H]2CCC[C@H]2O1` [Example 199, 3-amino-N-(4-((2R,4R,4aR,7aR)-4-aminooctahydrocyclopenta[b]pyran-2-yl)pyridin-3-yl)-6-phenylpyrazine-2-carboxamide]: half-maximal inhibition (IC50) required 62 nM. Against the preceding compound, the IC50 is about 1.6-fold higher.

With `CC(C)(C)[C@@H]1O[C@H](c2ccncc2NC(=O)c2nc(-c3ccccc3)cnc2N)C[C@@H](N)[C@H]1O` [Example 227, 3-amino-N-(4-((2S,4R,5R,6S)-4-amino-6-tert-butyl-5-hydroxytetrahydro-2H-pyran-2-yl)pyridin-3-yl)-6-phenylpyrazine-2-carboxamide], it took 1700 nM to reach half-maximal inhibition (IC50). Against the preceding compound, the IC50 is about 27-fold higher.

Take `C[C@H]1O[C@@H](c2ccncc2NC(=O)c2nc(-c3ccccc3)cnc2N)C[C@@H](N)[C@]1(C)O` [Example 228, 3-amino-N-(4-((2R,4R,5S,6R)-4-amino-5-hydroxy-5,6-dimethyltetrahydro-2H-pyran-2-yl)pyridin-3-yl)-6-phenylpyrazine-2-carboxamide]: the IC50 was 38 nM. Compared with the last compound, the IC50 is about 45-fold lower.

In turn, `C[C@@H]1O[C@H](c2ccncc2NC(=O)c2nc(-c3ccccc3)cnc2N)C[C@H](N)[C@@]1(C)O` [Example 229, 3-amino-N-(4-((2S,4S,5R,6S)-4-amino-5-hydroxy-5,6-dimethyltetrahydro-2H-pyran-2-yl)pyridin-3-yl)-6-phenylpyrazine-2-carboxamide] had a half-maximal inhibitory concentration (IC50) of 790 nM.

As to `Nc1ncc(-c2ccccc2)nc1C(=O)Nc1cnccc1[C@@H]1C[C@H](N)[C@@H]2CCC[C@@H]2O1` [Example 233, 3-amino-N-(4-((2S,4S,4aS,7aS)-4-aminooctahydrocyclopenta[b]pyran-2-yl)pyridin-3-yl)-6-phenylpyrazine-2-carboxamide], the concentration for half-maximal inhibition (IC50) came out at 3000 nM.

For `CC(C)[C@@H]1O[C@H](c2ccncc2NC(=O)c2nc(-c3ccccc3)cnc2N)C[C@H](N)[C@H]1O` [Example 240, 3-amino-N-(4-((2S,4S,5R,6S)-4-amino-5-hydroxy-6-isopropyltetrahydro-2H-pyran-2-yl)pyridin-3-yl)-6-phenylpyrazine-2-carboxamide], 5100 nM corresponded to half-maximal inhibition (IC50).

On to `Nc1ncc(-c2ccccc2)nc1C(=O)Nc1cnccc1[C@@H]1C[C@H](N)[C@]2(O)CCCC[C@@H]2O1` [Example 243, 3-amino-N-(4-((2S,4S,4aR,8aS)-4-amino-4a-hydroxyoctahydro-2H-chromen-2-yl)pyridin-3-yl)-6-phenylpyrazine-2-carboxamide], for which the concentration for half-maximal inhibition (IC50) worked out at 8400 nM.

`CC(C)(C)[C@H]1O[C@@H](c2ccncc2NC(=O)c2nc(-c3ccccc3)cnc2N)C[C@H](N)[C@@H]1O` [Example 286, 3-amino-N-(4-((2R,4S,5S,6R)-4-amino-6-tert-butyl-5-hydroxytetrahydro-2H-pyran-2-yl)pyridin-3-yl)-6-phenylpyrazine-2-carboxamide] returned a half-inhibitory concentration (IC50) of 180 nM.

Compound `CC(C)[C@@H]1C[C@H](N)C[C@H](c2ccncc2NC(=O)c2nc(-c3ccccc3)cnc2N)O1` [Example 291, 3-amino-N-(4-((2R,4S,6S)-4-amino-6-isopropyltetrahydro-2H-pyran-2-yl)pyridin-3-yl)-6-phenylpyrazine-2-carboxamide] had an IC50 of 340 nM.

With `CC(C)[C@H]1C[C@@H](N)C[C@@H](c2ccncc2NC(=O)c2nc(-c3ccccc3)cnc2N)O1` [Example 292, 3-amino-N-(4-((2S,4R,6R)-4-amino-6-isopropyltetrahydro-2H-pyran-2-yl)pyridin-3-yl)-6-phenylpyrazine-2-carboxamide], the 50% inhibitory concentration (IC50) is 4300 nM.

For `CCC[C@H]1O[C@@H](c2ccncc2NC(=O)c2nc(-c3ccccc3)cnc2N)C[C@@H](O)[C@@H]1O` [Example 340, 3-amino-N-(4-((2R,4R,5S,6R)-4,5-dihydroxy-6-propyltetrahydro-2H-pyran-2-yl)pyridin-3-yl)-6-phenylpyrazine-2-carboxamide], the 50% inhibitory concentration (IC50) amounted to 130 nM.

In the case of `Nc1ncc(-c2ccccc2)nc1C(=O)Nc1cnccc1[C@H]1C[C@@H](O)[C@H](O)[C@@H](CO)O1` [Example 341, 3-amino-N-(4-((2R,4R,5S,6R)-4,5-dihydroxy-6-(hydroxymethyl)tetrahydro-2H-pyran-2-yl)pyridin-3-yl)-6-phenylpyrazine-2-carboxamide], the IC50 amounted to 60 nM.

For the compound `CC[C@@H]1O[C@H](c2ccncc2NC(=O)c2nc(-c3ccccc3)cnc2N)C[C@H](N)[C@H]1O` [Example 342, 3-amino-N-(4-((2S,4S,5R,6S)-4-amino-6-ethyl-5-hydroxytetrahydro-2H-pyran-2-yl)pyridin-3-yl)-6-phenylpyrazine-2-carboxamide], 510 nM corresponded to half-maximal inhibition (IC50).

Consider `CC[C@H]1O[C@@H](c2ccncc2NC(=O)c2nc(-c3ccccc3)cnc2N)C[C@@H](N)[C@@H]1O` [Example 343, 3-amino-N-(4-((2R,4R,5S,6R)-4-amino-6-ethyl-5-hydroxytetrahydro-2H-pyran-2-yl)pyridin-3-yl)-6-phenylpyrazine-2-carboxamide], for which the IC50 was found to be 13 nM.

With `C[C@]1(O)[C@H](N)C[C@H](c2ccncc2NC(=O)c2nc(-c3ccccc3)cnc2N)O[C@@H]1C1CC1` [Example 344, 3-amino-N-(4-((2R,4R,5S,6R)-4-amino-6-cyclopropyl-5-hydroxy-5-methyltetrahydro-2H-pyran-2-yl)pyridin-3-yl)-6-phenylpyrazine-2-carboxamide], the IC50 turned out to be 58 nM. This IC50 is about 4.5-fold higher than that of the compound before.

`CC[C@@H]1O[C@H](c2ccncc2NC(=O)c2nc(-c3ccccc3)cnc2N)C[C@H](N)[C@@]1(C)O` [Example 345, 3-amino-N-(4-((2S,4S,5R,6S)-4-amino-6-ethyl-5-hydroxy-5-methyltetrahydro-2H-pyran-2-yl)pyridin-3-yl)-6-phenylpyrazine-2-carboxamide] yielded a half-maximal inhibitory concentration (IC50) of 4400 nM.

With `Nc1ncc(-c2ccccc2)nc1C(=O)Nc1cnccc1[C@H]1C[C@@H](N)[C@H](O)[C@@H](C2CC2)O1` [Example 346, 3-amino-N-(4-((2R,4R,5S,6R)-4-amino-6-cyclopropyl-5-hydroxytetrahydro-2H-pyran-2-yl)pyridin-3-yl)-6-phenylpyrazine-2-carboxamide], the IC50 is 28 nM.

`C[C@@]1(O)[C@@H](N)C[C@@H](c2ccncc2NC(=O)c2nc(-c3ccccc3)cnc2N)O[C@H]1C1CC1` [Example 347, 3-amino-N-(4-((2S,4S,5R,6S)-4-amino-6-cyclopropyl-5-hydroxy-5-methyltetrahydro-2H-pyran-2-yl)pyridin-3-yl)-6-phenylpyrazine-2-carboxamide]: it took 3700 nM to reach half-maximal inhibition (IC50).

Regarding `CC[C@H]1O[C@@H](c2ccncc2NC(=O)c2nc(-c3ccccc3)cnc2N)C[C@@H](N)[C@]1(C)O` [Example 348, 3-amino-N-(4-((2R,4R,5S,6R)-4-amino-6-ethyl-5-hydroxy-5-methyltetrahydro-2H-pyran-2-yl)pyridin-3-yl)-6-phenylpyrazine-2-carboxamide], the IC50 came to 150 nM.

`Nc1ncc(-c2ccccc2)nc1C(=O)Nc1cnccc1[C@@H]1C[C@H](N)[C@@H](O)[C@H](C2CC2)O1` [Example 349, 3-amino-N-(4-((2S,4S,5R,6S)-4-amino-6-cyclopropyl-5-hydroxytetrahydro-2H-pyran-2-yl)pyridin-3-yl)-6-phenylpyrazine-2-carboxamide] registered an IC50 of 2300 nM.
